Data reported in article PMC12209172, “Poly(ADP-ribose)polymerase 2 is zinc-dependent enzyme and nucleosome reorganizer” (Cellular and Molecular Life Sciences: CMLS, 2025).
Where “and” joins values, the source holds several entries; their conditions need not be identical. Equal values may be shown once.

Experiments:
WGR domain of PARP2 [1] = target: T1, WGR domain of PARP2 (Homo sapiens, UniProt Q9UGN5); assay: Circular dichroism spectroscopy of the WGR domain (BeStSel secondary structure analysis); parameters: content of a-helix in the WGR domain / content of b-sheet in the WGR domain / content of turn in the WGR domain / content of random coil in the WGR domain: unit not given here
T1 construct: WGR domain of PARP2 (residues 77–220) into pET-15b-TEV expression vector; 6xHis (pET-15b-TEV) (N, cleaved yes); made in house; host or cells: Escherichia coli Rosetta2 (DE3) pLysS
Method: CD spectra of proteins were recorded within the 190-250 nm spectral range with 0.2 nm step using Jasco-810 spectrophotometer (Jasco, Japan) and the quartz […]® cuvette of 0.1 mm thickness (Hellma, Germany. Secondary structure analysis was performed using BeStSel webserver. To improve the reliability of the analysis, the content of canonical secondary structures of various types was predicted for 3-6 independent measurements, and the values were averaged. The statistical significance of the secondary structure difference was determined using the multiple t-test.

[2] = target: T2, WGR domain-nucleosome complexes (Homo sapiens, UniProt Q9UGN5); assay: spFRET microscopy of WGR domain-nucleosome complexes; conditions: Np nucleosomes, WGR domain plus 2 mM Zn2+
T2 construct: WGR domain of PARP2 (residues 77–220) into pET-15b-TEV expression vector; 6xHis (pET-15b-TEV) (N, cleaved yes); made in house; host or cells: Escherichia coli Rosetta2 (DE3) pLysS (WGR)
Method: In the study of nucleosome-PARP2 interactions, nucleosomes (1–2 nM) were incubated with PARP2 (12.5–200 nM) in buffer A (50 mM Tris-HCl pH 7.5; 40 mM NaCl; 0.5 mM β-mercaptoethanol (β-ME); 0.1% NP40) at 25 °C for 30 min. When indicated, buffer A was supplemented with 50 µM – 5 mM ZnCl2, 5 mM CaCl2 or 5 mM MgCl2. To study the stability of Zn^2+-PARP2-nucleosome complexes, PARP2-nucleosome complexes that have been formed for 30 min in buffer A containing 50 nM PARP2 and 0.15 mM Zn^2+ ions were mixed with EDTA (10 mM) and incubated for 15 min. In the studies of PARylation, NAD+ (0.5–10 µM) was mixed with nucleosomes (1–2 nM) and PARP2 (100 nM) in buffer A and incubated for 45 min at 25 °C.
spFRET measurements in solution were performed as described previously. Each measured single nucleosome was characterized by FRET between Cy3 and Cy5 labels calculated as a proximity ratio (EPR):1 [drawing 1]
Where I3 and I5 are fluorescence intensities of Cy3 and Cy5, respectively, and coefficients 0.19 and 0.81 provide correction for the spectral cross-talk between Cy3 and Cy5 detection channels. […] Relative frequency distributions of nucleosomes by EPR values, i.e. EPR profiles, (2000–5000 nucleosomes per experiment; 3 independent experiments) were plotted and further analyzed as a superposition of several normal (Gaussian) distributions for nucleosomes or nucleosome-PARP2 complexes. […]

WGR domain of PARP2 [3] = target: T1, WGR domain of PARP2; assay: Tryptophan fluorescence spectroscopy of the WGR domain titrated with divalent cations (one site binding fit); conditions: for fluorescence intensity (Fig 3d): listed as Zn
Method: Fluorescence spectra of Trp residues were measured in the 300–450 nm spectral range at the 270 nm excitation wavelengths using the Cary Eclipse spectrofluorometer (Varian/Agilent, USA).
Fluorescence of WGR domain was measured at 0.5 or 5 µM in a buffer containing 10 mM HEPES (pH 8.0), 150 mM NaCl and 0.73 or 7.3 µM EDTA, respectively. Solutions were complemented with ZnCl2 (0.2–308 µM) or MgCl2 (15–5000 µM), or CaCl2 (8–5000 µM) dissolved in a buffer containing 10 mM HEPES (pH 8.0), 150 mM NaCl. Intensity of the measured spectra was corrected for the concomitant dilution of the WGR domain. Integral intensities (Ifl.) of fluorescence spectra were averaged over three independent measurements (mean ± SEM) and used to plot the corresponding Ifl. vs. ion concentration graphs. Data were fitted with the one site binding equation:2 [drawing 2]
Where C is the concentration of divalent cations, Kd is a dissociation constant of the complex, Im and Ifl0 are maximal and initial values of Ifl., respectively.

[4] = 0.5 mM ion, independent measurements

T1 sequence (Q9UGN5 77-220): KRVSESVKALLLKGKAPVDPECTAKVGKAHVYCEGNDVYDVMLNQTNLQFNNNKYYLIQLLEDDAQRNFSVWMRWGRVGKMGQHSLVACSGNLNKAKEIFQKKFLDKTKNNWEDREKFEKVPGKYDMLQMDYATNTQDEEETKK

For `[Cl-].[Cl-].[Zn+2]` [Zn2+, ZnCl2], the “effect of ions on the structure of the WGR domain (CD)” value (WGR domain of PARP2 [1]) was “significantly changes”, the “content of b-sheet in the WGR domain” value (WGR domain of PARP2 [1]; [4]) was 26.6 and 28 and 25.5 and 34.1 and 29.7 and the “content of random coil in the WGR domain” value (WGR domain of PARP2 [1]; [4]) was 48.2 and 46 and 53.4 and 46.2. The “content of turn in the WGR domain” value (WGR domain of PARP2 [1]; [4]) was 15.4 and 13.9 and 14.7 and 15.1 and 13.3, the “EPR maximum of the new peak in the EPR profile” value [2] was 0.4 and the “Zn2+ concentration at which changes in the fluorescence of Trp residues of the WGR domain were observed” value (WGR domain of PARP2 [3]; Figure S4) was 0.4 to 5 µM. For the same compound, the Kd (WGR domain of PARP2 [3]; Trp fluorescence, one site binding fit, 10 mM HEPES pH 8.0, 150 mM NaCl, residual EDTA present, read-out: dissociation constant of the divalent cation-WGR domain complex) was 2 µM and ~2 µM, the “effect of ions on intensity of tryptophan fluorescence of the WGR domain” value (WGR domain of PARP2 [3]; WGR domain 5 µM) was “considerably increased” and the “fluorescence intensity (Fig 3d)” value (WGR domain of PARP2 [3]; wavelength 330.000, 5.9 uM Zn) was 64.607 and 70.927 and 88.925 and 69.072. For the same compound, the “fluorescence intensity (Fig 3d)” value (WGR domain of PARP2 [3]; wavelength 330.000, 11.6 uM Zn) was 118.714 and 102.531 and 101.352 and 109.279, the “fluorescence intensity (Fig 3d)” value (WGR domain of PARP2 [3]; wavelength 330.000, 17.2 uM) was 125.078 and 114.327 and 116.086 and 114.151 and the “fluorescence intensity (Fig 3d)” value (WGR domain of PARP2 [3]; wavelength 330.000, 22.1 uM) was 125.812 and 115.097 and 117.722 and 114.227. For the same compound, the “fluorescence intensity (Fig 3d)” value (WGR domain of PARP2 [3]; wavelength 330.000, 303 uM + 7 mM EDTA) was 42.022 and 51.928 and 42.125 and 50.264, the “fluorescence intensity (Fig 3d)” value (WGR domain of PARP2 [3]; wavelength 330.000, 308 uM) was 125.859 and 119.818 and 119.168 and 117.804 and the “fluorescence intensity (Fig 3d)” value (WGR domain of PARP2 [3]; wavelength 331.070, 5.9 uM Zn) was 65.518 and 73.717 and 91.313 and 71.214. The “fluorescence intensity (Fig 3d)” value (WGR domain of PARP2 [3]; wavelength 331.070, 11.6 uM Zn) was 121.141 and 105.018 and 103.680 and 111.886, the “fluorescence intensity (Fig 3d)” value (WGR domain of PARP2 [3]; wavelength 331.070, 17.2 uM) was 128.785 and 116.958 and 116.866 and 116.180 and the “fluorescence intensity (Fig 3d)” value (WGR domain of PARP2 [3]; wavelength 331.070, 22.1 uM) was 127.402 and 115.749 and 117.457 and 117.342. The “fluorescence intensity (Fig 3d)” value (WGR domain of PARP2 [3]; wavelength 331.070, 303 uM + 7 mM EDTA) was 42.915 and 54.693 and 43.072 and 51.479, the “fluorescence intensity (Fig 3d)” value (WGR domain of PARP2 [3]; wavelength 331.070, 308 uM) was 129.366 and 122.539 and 123.005 and 119.729 and the “fluorescence intensity (Fig 3d)” value (WGR domain of PARP2 [3]; wavelength 332.000, 5.9 uM Zn) was 66.418 and 75.386 and 92.296 and 72.347. For the same compound, the “fluorescence intensity (Fig 3d)” value (WGR domain of PARP2 [3]; wavelength 332.000, 11.6 uM Zn) was 123.485 and 106.394 and 106.147 and 113.513, the “fluorescence intensity (Fig 3d)” value (WGR domain of PARP2 [3]; wavelength 332.000, 17.2 uM) was 128.874 and 118.064 and 118.851 and 118.214 and the “fluorescence intensity (Fig 3d)” value (WGR domain of PARP2 [3]; wavelength 332.000, 22.1 uM) was 131.124 and 117.614 and 119.985 and 119.070. The “fluorescence intensity (Fig 3d)” value (WGR domain of PARP2 [3]; wavelength 332.000, 303 uM + 7 mM EDTA) was 43.600 and 54.088 and 43.890 and 52.288, the “fluorescence intensity (Fig 3d)” value (WGR domain of PARP2 [3]; wavelength 332.000, 308 uM) was 130.593 and 122.360 and 123.201 and 121.123 and the “fluorescence intensity (Fig 3d)” value (WGR domain of PARP2 [3]; wavelength 333.070, 5.9 uM Zn) was 68.103 and 76.819 and 93.790 and 71.930. For the same compound, the “fluorescence intensity (Fig 3d)” value (WGR domain of PARP2 [3]; wavelength 333.070, 11.6 uM Zn) was 125.333 and 108.991 and 107.827 and 116.743, the “fluorescence intensity (Fig 3d)” value (WGR domain of PARP2 [3]; wavelength 333.070, 17.2 uM) was 132.720 and 120.694 and 121.118 and 119.035 and the “fluorescence intensity (Fig 3d)” value (WGR domain of PARP2 [3]; wavelength 333.070, 22.1 uM) was 132.619 and 121.520 and 120.252 and 122.459. For the same compound, the “fluorescence intensity (Fig 3d)” value (WGR domain of PARP2 [3]; wavelength 333.070, 303 uM + 7 mM EDTA) was 43.562 and 54.895 and 44.695 and 52.661, the “fluorescence intensity (Fig 3d)” value (WGR domain of PARP2 [3]; wavelength 333.070, 308 uM) was 133.279 and 127.119 and 125.798 and 122.486 and the “fluorescence intensity (Fig 3d)” value (WGR domain of PARP2 [3]; wavelength 334.000, 5.9 uM Zn) was 68.621 and 78.226. The “fluorescence intensity (Fig 3d)” value (WGR domain of PARP2 [3]; wavelength 334.000, 11.6 uM Zn) was 126.789 and 111.115.
